For orientation: IC50 means the concentration that gives 50% inhibition.

Data on 16 compounds can be found in ChEMBL document CHEMBL3112401, “Activity of diimidazoline amides against African trypanosomiasis” (Bioorg Med Chem Lett, 2014).

For one series, the system named is L6. Description: Cytotoxicity against rat L6 cells assessed as cell viability after 70 hrs by MTT assay. It is filed as cell-based. The settings on record: L6, 70 h. (Formazan colour is commonly taken as a measure of viable cells.)
Series [1] has as its system Trypanosoma brucei rhodesiense. Description: Antitrypanosomal activity against Trypanosoma brucei rhodesiense STIB900 assessed as parasite growth inhibition after 70 hrs by Alamar blue assay. It counts as functional, organism-based. The settings on record: STIB900, 70 h. A general note: Resazurin is reduced to fluorescent resorufin, in cell work by metabolically active cells.

Series [2] deals with Trypanosoma brucei rhodesiense. The series can be described thus: Antitrypanosomal activity against Trypanosoma brucei rhodesiense infected in mouse assessed as cure rate at 40 mg/kg, ip administered on day 1 to 3 relative to control. It counts as functional. The conditions noted are these: route intraperitoneal.
The test system of series [3] is Trypanosoma brucei rhodesiense. The series can be described thus: Antitrypanosomal activity against Trypanosoma brucei rhodesiense infected in mouse assessed as mean survival days at 50 mg/kg, ip administered on day 3 to 6 (reference value: 6 to 10 days). It counts as functional. The settings on record: route intraperitoneal.
Series [4] deals with Trypanosoma brucei rhodesiense. Description: Antitrypanosomal activity against Trypanosoma brucei rhodesiense infected in mouse assessed as survival more than 60 days without parasitemia relapse at 50 mg/kg, ip administered on day 3 to 6. It counts as functional, organism-based. Also noted: dose 50 mg/kg.
For another series, the system named is Mus musculus. The series can be described thus: Toxicity in mouse infected with Trypanosoma brucei rhodesiense at 50 mg/kg, ip measured after day 3. It is filed as organism-based. Also noted: dose 50 mg/kg, route intraperitoneal. The conditions noted are these: in vivo.

Activity calls are given as the source filed them. No cut-off for these calls is given here.

As for `O=C(N[C@H]1CC[C@H](NC(=O)c2ccc(C3=NCCN3)cc2)CC1)c1ccc(C2=NCCN2)cc1`, the values for the IC50 (with L6; in series [1]) were 130 µM and 0.69 µM, respectively.

`O=C(NCc1ccc(C2=NCCN2)cc1)c1cccc(C(=O)NCc2ccc(C3=NCCN3)cc2)c1`: the IC50 in the series with L6 was > 150 µM; in series [1], 64 µM.

For `CS(=O)(=O)O.O=C(Nc1ccc(C2=NCCN2)cc1)c1ccc(C(=O)Nc2ccc(C3=NCCN3)cc2)cc1`, the Activity in series [2] worked out at 100%. The 50% inhibitory concentration (IC50) was determined as 110 µM in the series on L6 and 0.0047 µM in series [1]. In addition, in series [3], the MSD was determined as 39 days.

Consider `Nc1nc(N)nc(Nc2ccc([As]3SCC(CO)S3)cc2)n1` (stereo unspecified) [MELARSOPROL], for which the IC50 with L6 stood at 19 µM; in series [1], 0.0038 µM.

With `O=C(Nc1ccc(C2=NCCN2)cc1)c1ccc(-c2cc3ccc(C4=NCCN4)cc3[nH]2)cc1`, the Activity in series [2] worked out at 100%. The concentration for half-maximal inhibition (IC50) was determined as 19 µM with L6 and 0.0022 µM in series [1].

Consider `CS(=O)(=O)O.O=C(NCc1ccc(C2=NCCN2)cc1)c1ccc(-c2cc3ccc(C4=NCCN4)cc3[nH]2)cc1`, for which the Activity is 100% in series [2] and “Toxic” with Mus musculus. Besides, the half-inhibitory concentration (IC50) in the series on L6 is 41 µM; in series [1], 0.0015 µM. Moreover, the outcome in series [4] was inactive.

Consider `CS(=O)(=O)O.O=C(Nc1ccc(C2=NCCN2)cc1)c1cccc(C(=O)Nc2ccc(C3=NCCN3)cc2)c1`, for which, in series [2], the Activity was 100%. For the same compound, the IC50 in the series on L6 is 120 µM; in series [1], 0.051 µM. Further, in series [4], the outcome was Active. Moreover, the MSD in series [3] is >60 days.

In the case of `O=C(NCc1ccccc1)c1ccc(-c2cc3ccc(C4=NCCN4)cc3[nH]2)cc1`, the results for the IC50 (in the series on L6; in series [1]) were 110 µM and 2.2 µM, respectively.

On to `O=C(NCc1ccncc1)c1ccc(-c2cc3ccc(C4=NCCN4)cc3[nH]2)cc1`, for which, in series [2], the Activity worked out at 100%. The IC50 with L6 was found to be 89 µM; in series [1], 0.023 µM.

For `CS(=O)(=O)O.O=C(Nc1ccc(NC(=O)c2ccc(C3=NCCN3)cc2)cc1)c1ccc(C2=NCCN2)cc1`, the Activity was 100% in series [2] and “Non-toxic” with Mus musculus. Moreover, the IC50 in the series with L6 turned out to be 92 µM; in series [1] it was 0.12 µM. Also, in series [4], the result was Active. In addition, the MSD in series [3] was >60 days.

With `O=C(NCc1ccc(C2=NCCN2)cc1)c1ccc(C(=O)NCc2ccc(C3=NCCN3)cc2)cc1`, the 50% inhibitory concentration (IC50) is 92 µM in the series with L6 and 9.5 µM in series [1].

For `CS(=O)(=O)O.O=C(Nc1ccc(C2=NCCN2)cc1)c1ccc(NC(=O)c2ccc(C3=NCCN3)cc2)cc1`, the Activity in series [2] was 100%; in the series on Mus musculus, “Non-toxic”. Also, the values for the half-inhibitory concentration (IC50) (in the series on L6; in series [1]) were 50 µM and 0.011 µM, respectively. Also, the result in series [4] was Active. Moreover, the MSD in series [3] is >60 days.

As for `CS(=O)(=O)O.O=C(Nc1ccc(C2=NCCN2)cc1)c1ccc(-c2ccc(C(=O)Nc3ccc(C4=NCCN4)cc3)cc2)cc1`, the Activity is recorded as 100% in series [2] and “Non-toxic” in the series on Mus musculus. For the same compound, the IC50 in the series with L6 is > 150 µM; in series [1], 0.019 µM. Besides, the outcome in series [4] was inactive. Besides, in series [3], the MSD stood at 11 days.

In the case of `CS(=O)(=O)O.O=C(Nc1cccc(C(=O)Nc2ccc(C3=NCCN3)cc2)c1)c1ccc(C2=NCCN2)cc1`, the Activity in series [2] is recorded as 100%; in the series on Mus musculus, “Non-toxic”. For the same compound, the figures for the half-inhibitory concentration (IC50) (with L6; in series [1]) were 99 µM and 0.12 µM, respectively. Further, the outcome in series [4] was Active. Also, in series [3], the MSD was >60 days.

Take `CS(=O)(=O)O.O=C(Nc1ccc(C2=NCCN2)cc1)c1ccc(C2=NCCN2)cc1`: the values for the Activity (in series [2]; in the series with Mus musculus) were 100% and “Non-toxic”, respectively. Also, the IC50 in the series on L6 was found to be 68 µM; in series [1] it was 0.086 µM. In series [3], the MSD was determined as 34 days.

`N=C(N)c1ccc(OCCCCCOc2ccc(C(=N)N)cc2)cc1` [PENTAMIDINE ISETHIONATE]: the figures for the 50% inhibitory concentration (IC50) (in the series with L6; in series [1]) were 5.1 µM and 0.0015 µM, respectively.
